From patent US6444477B1, “Assay method for detecting 5-HT2B antagonists” (Pharmagene Laboratories Limited, priority 2000, dated 2002)
Read-outs that look alike come from different tables or passages of the source. Marks after values point to notes of the source that are not given here.

How the values were obtained:
human 5-HT2C receptor [1] = molecular target: T1, human 5-HT2C receptor (Homo sapiens, UniProt P28335); conditions: cited from earlier work
T1 sequence (P28335 33-458): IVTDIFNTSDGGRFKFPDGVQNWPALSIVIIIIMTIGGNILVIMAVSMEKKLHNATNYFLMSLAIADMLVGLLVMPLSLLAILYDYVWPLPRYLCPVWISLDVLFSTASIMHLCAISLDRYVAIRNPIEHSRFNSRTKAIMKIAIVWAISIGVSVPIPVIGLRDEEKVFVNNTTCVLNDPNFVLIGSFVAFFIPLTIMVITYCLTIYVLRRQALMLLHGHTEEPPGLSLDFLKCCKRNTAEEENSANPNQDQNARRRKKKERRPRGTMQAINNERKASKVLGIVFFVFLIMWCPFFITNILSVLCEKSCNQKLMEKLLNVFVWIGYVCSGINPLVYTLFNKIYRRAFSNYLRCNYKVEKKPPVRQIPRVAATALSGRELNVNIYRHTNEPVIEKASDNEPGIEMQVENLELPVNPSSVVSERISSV

human 5-HT2A receptor [2] = molecular target: T2, human 5-HT2A receptor (Homo sapiens, UniProt P28223); conditions: cited from earlier work
T2 sequence (P28223 whole entry): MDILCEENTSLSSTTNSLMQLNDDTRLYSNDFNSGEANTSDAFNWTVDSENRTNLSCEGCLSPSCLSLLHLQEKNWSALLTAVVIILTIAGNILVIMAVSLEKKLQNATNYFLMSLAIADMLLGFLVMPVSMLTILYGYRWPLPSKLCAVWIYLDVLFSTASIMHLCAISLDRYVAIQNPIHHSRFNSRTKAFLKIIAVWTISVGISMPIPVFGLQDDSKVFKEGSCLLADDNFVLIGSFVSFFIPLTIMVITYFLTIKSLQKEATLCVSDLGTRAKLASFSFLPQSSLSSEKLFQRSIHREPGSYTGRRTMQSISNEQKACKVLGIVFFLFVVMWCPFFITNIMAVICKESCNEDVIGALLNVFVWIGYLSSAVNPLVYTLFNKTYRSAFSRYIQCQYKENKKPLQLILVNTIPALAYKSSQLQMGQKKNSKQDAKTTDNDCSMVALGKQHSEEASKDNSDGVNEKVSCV

5-HT2B receptor [3] = molecular target: T3, 5-HT2B receptor (Homo sapiens, UniProt P41595); conditions: cited from earlier work
Target sequence in this assay (P41595 whole entry): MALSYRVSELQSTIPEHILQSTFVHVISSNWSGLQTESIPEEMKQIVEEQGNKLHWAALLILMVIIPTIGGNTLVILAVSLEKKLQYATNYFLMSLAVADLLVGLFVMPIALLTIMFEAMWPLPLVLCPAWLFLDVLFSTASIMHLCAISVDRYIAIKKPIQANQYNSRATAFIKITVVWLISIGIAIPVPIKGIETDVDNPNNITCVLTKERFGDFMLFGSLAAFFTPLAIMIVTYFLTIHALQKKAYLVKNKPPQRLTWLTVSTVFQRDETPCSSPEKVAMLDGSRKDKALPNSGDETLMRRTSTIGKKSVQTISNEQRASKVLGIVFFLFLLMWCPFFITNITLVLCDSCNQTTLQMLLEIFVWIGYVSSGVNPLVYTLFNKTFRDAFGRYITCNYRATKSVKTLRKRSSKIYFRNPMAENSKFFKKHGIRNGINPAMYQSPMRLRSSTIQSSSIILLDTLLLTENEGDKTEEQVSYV

human 5-HT4 receptor [4] = molecular target: T4, human 5-HT4 receptor (Homo sapiens, UniProt Q13639); conditions: marked #; cited from earlier work
T4 sequence (Q13639 whole entry): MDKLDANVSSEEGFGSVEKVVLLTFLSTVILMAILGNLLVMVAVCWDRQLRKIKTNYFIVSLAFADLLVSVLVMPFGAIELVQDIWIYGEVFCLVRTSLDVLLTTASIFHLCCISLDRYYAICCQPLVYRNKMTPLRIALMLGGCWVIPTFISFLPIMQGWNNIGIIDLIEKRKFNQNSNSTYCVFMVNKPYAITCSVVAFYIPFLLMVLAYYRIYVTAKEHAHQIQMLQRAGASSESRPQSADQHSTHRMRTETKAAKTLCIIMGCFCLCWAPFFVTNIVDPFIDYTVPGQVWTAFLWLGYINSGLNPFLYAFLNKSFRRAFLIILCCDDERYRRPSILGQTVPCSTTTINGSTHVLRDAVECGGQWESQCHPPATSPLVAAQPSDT

[5] = molecular target: 5-HT receptor in human colon longitudinal muscle (Homo sapiens, UniProt P41595); assay: 5-HT-induced potentiation of electrically stimulated contractions of human colon longitudinal muscle strips; assay type: cell-based
Chain of 5-HT receptor in human colon longitudinal muscle (Homo sapiens, UniProt P41595) (P41595 whole entry): as the sequence (P41595 whole entry) above

5-HT2B receptor [6] = molecular target: T3, 5-HT2B receptor; conditions: cited from earlier work; remark: listed apart in the source
Target sequence in this assay (P41595 whole entry): as above

human 5-HT4 receptor [7] = molecular target: T4, human 5-HT4 receptor; conditions: cited from earlier work
[8] = system: 5-HT receptor in human colon longitudinal muscle; assay: 5-HT-induced potentiation of electrically stimulated contractions of human colon longitudinal muscle strips; assay type: cell-based
human 5-HT2C receptor [9] = molecular target: T1, human 5-HT2C receptor; conditions: cited from earlier work; remark: listed apart in the source
5-HT2B receptor [10] = molecular target: T3, 5-HT2B receptor; conditions: cited from earlier work; remark: listed apart in the source
Target sequence in this assay (P41595 whole entry, looked up): as the sequence (P41595 whole entry) above

human 5-HT2A receptor [11] = molecular target: T2, human 5-HT2A receptor; conditions: cited from earlier work; remark: listed apart in the source

Molecule: Cc1cc2c(cc1Cl)N(C(=O)Nc1ccc(Oc3cccnc3C)nc1)CC2 [SB 242084]
- affinity from binding data (#) at human 5-HT2C receptor (human 5-HT2C receptor [1]): <6.0^#
- affinity from binding data (#) at human 5-HT2A receptor (human 5-HT2A receptor [2]): 6.8^#
- affinity from binding data (#) at human 5-HT2B receptor (5-HT2B receptor [3]): 7.0^#
- affinity from binding data (#) at human 5-HT4 receptor (human 5-HT4 receptor [4]): <5.0^#
- pKB estimate for antagonists at the 5-HT receptor in colon ([5]; human colon longitudinal muscle, at least 3 concentrations (methiothepin a single concentration), at least 3 donors): 6.3 ± 0.2

Molecule: COc1ccc2[nH]cc(CCN)c2c1 [5-MeOT]
- pEC50 for agonists at human 5-HT2B receptor (5-HT2B receptor [6]): 7.6
- pEC50 for agonists at human 5-HT4 receptor (human 5-HT4 receptor [7]): 6.2
- pEC50 for agonists at the 5-HT receptor in colon [5]: 6.8 ± 0.2

Molecule: Cn1ccc2cc3c(cc21)CCN3C(=O)Nc1cccnc1 [SB 206553, 5-methyl-1-(3-pyridylcarbamoyl)-1,2,3,5-tetrahydropyrrolo [2,3-f]indole]
- pKB or pA2 for antagonists (*) at human 5-HT2B receptor (5-HT2B receptor [6]): 9.0*
- affinity from binding data (#) at human 5-HT2A receptor (human 5-HT2A receptor [2]; marked #): 6.0^#
- Kb [5]: 3.16 nM
- antagonist potency against 5-HT response in human colon [5]: 8.5

Molecule: NC1=N[C@H](O)[C@H]2[C@H]3O[C@]4(O)O[C@@H]([C@@H](O)[C@@]2(N1)[C@@H]4O)[C@]3(O)CO [tetrodotoxin]
- effect on contractile responses of colon smooth muscle to electrical stimulation [8]: inhibited

Molecule: CC[C@@H](CO)NC(=O)[C@@H]1C=C2c3cccc4c3c(cn4C)C[C@H]2N(C)C1 [Methysergide]
- pKB or pA2 for antagonists (*) at human 5-HT2C receptor (human 5-HT2C receptor [9]): 8.9*
- pKB or pA2 for antagonists (*) at human 5-HT4 receptor (human 5-HT4 receptor [7]; marked *): <5.0*

Molecule: Cl.Cn1ccc2cc(NC(=O)Nc3cccnc3)ccc21 [SB-200646, N-(1-methyl-5-indolyl)-N′-(3-pyridyl)urea hydrochloride]
- selectivity between 5-HT2B and 5-HT2C receptors (5-HT2B receptor [10]): Non-selective

Molecule: CN1[C@@H]2CC[C@H]1C[C@@H](OC(=O)C(CO)c1ccccc1)C2 (stereo partly shown) [atropine]
- effect on contractile responses of colon smooth muscle to electrical stimulation [8]: inhibited

Molecule: N-(1-methyl-1H-indol-5-yl)N′-(-bezyl)-2,3,4,9-tetrahydro-1H-beta-carboline [LY-23728]
- selectivity for 5-HT2B over 5-HT2C and 5-HT2A receptors (5-HT2B receptor [10]): 100 fold

Molecule: COC(=O)[C@@H]1[C@H]2C[C@H]3c4[nH]c5ccccc5c4CCN3C[C@@H]2CC[C@@H]1O [Yohimbine]
- affinity at human 5-HT2C receptor (human 5-HT2C receptor [9]): <5.0

Molecule: CSc1ccc2c(c1)C(N1CCN(C)CC1)Cc1ccccc1S2 (stereo not shown) [Methiothepin]
- pKB or pA2 for antagonists (*) at human 5-HT4 receptor (human 5-HT4 receptor [7]): <6.0*

Molecule: O=C(c1ccc(F)cc1)C1CCN(CCn2c(=O)[nH]c3ccccc3c2=O)CC1 [Ketanserin]
- pKB or pA2 for antagonists (*) at human 5-HT4 receptor (human 5-HT4 receptor [7]; marked *): 4.7*

Molecule: Cc1cc2c(cc1Cl)N(C(=O)Nc1cccc3ncccc13)CC2 [SB-215505, 6-chloro-5-methyl-N-(5-quinolyl)-2,3-dihydro-1H-indole-1-carboxamide]
- potency as 5-HT2B receptor antagonist (5-HT2B receptor [10]): 9.9
- selectivity for 5-HT2B over 5-HT2C and 5-HT2A receptors (5-HT2B receptor [10]): 100 fold

Molecule: Cc1cc(NC(=O)Nc2ccc3c(ccn3C)c2)sn1 [SB 204741, N-(1-methyl-5-indolyl)-N′-(3-methyl-5-isothiazolyl) urea]
- pKB or pA2 for antagonists (*) at human 5-HT2A receptor (human 5-HT2A receptor [11]): <5.0*
- pKB or pA2 for antagonists (*) at human 5-HT2B receptor (5-HT2B receptor [6]; marked *): 7.0*
- affinity at human 5-HT4 receptor (human 5-HT4 receptor [7]; neither * nor # printed): <5.0
- Kb [5]: 158 nM
- antagonist potency against 5-HT response in human colon [5]: 6.8

Molecule: CC(N)Cc1c[nH]c2ccc(O)cc12 (stereo not drawn) [Alpha-Me5-HT]
- pEC50 for agonists at human 5-HT2B receptor (5-HT2B receptor [6]): 8.4
- pEC50 for agonists at human 5-HT4 receptor (human 5-HT4 receptor [7]): 6.2
- pEC50 for agonists at the 5-HT receptor in colon ([5]; human colon longitudinal muscle, mean ± s.e.mean, at least 3 donors): 8.5 ± 0.1

Molecule: CC(C)c1cc(-c2ccc(F)c3ccccc23)nc(N)n1 [RS 127445, 2-amino-4-(4-fluoronaphth-1-yl)-6-isopropylpyrimidine]
- affinity from binding data (#) at human 5-HT2B receptor (5-HT2B receptor [3]; marked #): 9.5^#
- pKB or pA2 for antagonists (*) at human 5-HT2C receptor (human 5-HT2C receptor [9]; marked *): 6.4*
- Kb [5]: 0.398 nM
